# Laboratory results: patent US10035790B2, “RORγ modulators” (BRISTOL-MYERS SQUIBB COMPANY, priority 2012, dated 2018)
# Molecular target: T1, ligand binding domain of human RORγ (A262-S507) (Homo sapiens, UniProt P51449)
# T1 construct: made in house; host or cells: E. coli
# T1 sequence (P51449 262-507): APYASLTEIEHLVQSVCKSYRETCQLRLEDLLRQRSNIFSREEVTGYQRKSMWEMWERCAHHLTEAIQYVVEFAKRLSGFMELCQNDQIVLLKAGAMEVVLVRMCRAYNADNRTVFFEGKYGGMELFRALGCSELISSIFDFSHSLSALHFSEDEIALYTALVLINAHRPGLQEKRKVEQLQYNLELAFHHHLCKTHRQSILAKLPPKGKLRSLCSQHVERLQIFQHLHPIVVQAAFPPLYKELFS
# Assay: General RORγ SPA binding assay (competition with [3H]25-hydroxycholesterol)
# Conditions: IC50, RORγ SPA binding assay, inhibition of [3H]25-hydroxycholesterol binding
# Outline: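 Scintillation counts from copper His-tag SPA beads (4 mg/mL, 30 min) gave percent inhibition of radioligand binding, from which IC50 values are derived. The E. coli-expressed His-tagged domain (50 nM) is first exposed to compound for 15 min at room temperature in PBS containing 0.5% fatty acid free BSA.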
row,SMILES,IC50 [nM]
1,"CC(O)(COc1ccnc(C(F)(F)F)n1)c1cnc(N)nc1C1CCN(C(=O)Oc2ccccc2F)CC1 (stereo not shown) [Compound D49, 2-Fluorophenyl 4-[2-amino-5-(1-hydroxy-1-methyl-2-{[2-(trifluoromethyl)pyrimidin-4-yl]oxy}ethyl)pyrimidin-4-yl]piperidine-1-carboxylate]",7.2

# Same assay, conditions: RORγ SPA binding assay, inhibition of [3H]25-hydroxycholesterol binding; read-out: IC50
row,SMILES,IC50 [nM]
1,"CC(=O)Nc1nc(C)c(C(=O)COc2cccc(C(F)(F)F)n2)c(C2CCN(C(=O)Nc3c(F)cccc3F)CC2)n1 [Compound M12, 4-[2-(Acetylamino)-6-methyl-5-({[6-(trifluoromethyl)pyridin-2-yl]oxy}acetyl)pyrimidin-4-yl]-N-(2,6-difluorophenyl)piperidine-1-carboxamide]",6.2
2,"Cc1cc(C)cc(CNC(=O)c2cnc(C3CC3)nc2C2CCN(C(=O)Cc3c(F)cccc3F)CC2)c1 [Compound A43, 2-cyclopropyl-4-(1-(2-(2,6-difluorophenyl)acetyl)piperidin-4-yl)-N-(3,5-dimethylbenzyl)pyrimidine-5-carboxamide]",5.4
3,"Cc1cc(C)cc(CNC(=O)c2cnc(C)nc2C2CCN(C(=O)Oc3ccccc3Cl)CC2)c1 [Compound A119, 2-Chlorophenyl 4-[5-({[(3,5-dimethylphenyl)methyl]amino}carbonyl)-2-methylpyrimidin-4-yl]piperidine-1-carboxylate]",6.2
4,"CC(=O)NCC(O)(COc1cccc(C(F)(F)F)n1)c1cnc(C)nc1C1CCN(C(=O)Oc2ccc(F)cc2)CC1 (stereo not shown) [Compound N46, 4-Fluorophenyl 4-{5-[2-(acetylamino)-1-hydroxy-1-({[6-(trifluoromethyl)pyridin-2-yl]oxy}methyl)ethyl]-2-methylpyrimidin-4-yl}piperidine-1-carboxylate]",39
5,"Cc1ncc(C(=O)NCc2cccc(C(F)(F)F)c2)c(C2CCN(C(=O)Cc3c(F)cccc3F)CC2)n1 [Compound A46, 4-(1-(2-(2,6-difluorophenyl)acetyl)piperidin-4-yl)-2-methyl-N-(3-(trifluoromethyl)benzyl)pyrimidine-5-carboxamide]",6.1
6,"Cc1nc(N)nc(C2CCN(C(=O)Nc3c(F)cccc3F)CC2)c1-c1nnc(-c2cccc(C(F)(F)F)n2)o1 [Compound C59, 4-(2-Amino-6-methyl-5-{5-[6-(trifluoromethyl)pyridin-2-yl]-1,3,4-oxadiazol-2-yl}pyrimidin-4-yl)-N-(2,6-difluorophenyl)piperidine-1-carboxamide]",27.9
7,"Cc1cc(CNC(=O)c2cnc(C)nc2C2CCN(C(=O)Cc3c(F)cccc3F)CC2)cc(C)n1 [Compound A73, 4-(1-(2-(2,6-difluorophenyl)acetyl)piperidin-4-yl)-N-((2,6-dimethylpyridin-4-yl)methyl)-2-methylpyrimidine-5-carboxamide]",426
8,"COC(=O)C(C)(CNc1ccnc(C(F)(F)F)n1)c1cnc(C)nc1C1CCN(C(=O)Cc2c(F)cccc2F)CC1 (stereo not shown) [Compound F4, Methyl 2-(4-(1-(2-(2,6-difluorophenyl)acetyl)piperidin-4-yl)-2-methylpyrimidin-5-yl)-2-methyl-3-(2-(trifluoromethyl)pyrimidin-4-ylamino)propanoate]",195
9,"Cc1cc(C)cc(CNC(=O)c2cnc(C)nc2C2CCN(C(=O)Cc3ccccc3OC(F)(F)F)CC2)c1 [Compound A9, N-(3,5-dimethylbenzyl)-2-methyl-4-(1-(2-(2-(trifluoromethoxy)phenyl)acetyl)piperidin-4-yl)pyrimidine-5-carboxamide]",31.6
10,"Cc1ncc(C(=O)NCc2cccc(Cl)c2)c(C2(C)CCN(C(=O)Cc3c(F)cccc3F)CC2)n1 [Compound A102, N-(3-Chlorobenzyl)-4-(1-(2-(2,6-difluorophenyl)acetyl)-4-methylpiperidin-4-yl)-2-methylpyrimidine-5-carb oxamide]",1730
11,"NCCNc1ncc(C(=O)NCc2cccc(Cl)c2)c(C2CCN(C(=O)Cc3c(F)cccc3F)CC2)n1 [Compound A96, 2-((2-aminoethyl)amino)-N-(3-chlorobenzyl)-4-(1-(2-(2,6-difluorophenyl)acetyl)piperidin-4-yl)pyrimidine-5-carboxamide]",202
12,"C/C(=N/Oc1cc(C)cc(C)c1)c1cnc(C)nc1C1CCN(C(=O)Cc2c(F)cccc2F)CC1 [Compound B10, (Z)-2-(2,6-difluorophenyl)-1-(4-(5-(1-((3,5-dimethylphenoxy)imino)ethyl)-2-methylpyrimidin-4-yl)piperidin-1-yl)ethanone]",1670
13,"Nc1ncc(C(=O)COc2ccnc(C(F)(F)F)n2)c(C2CCN(C(=O)Nc3c(F)cccc3F)CC2)n1 [Compound M6, 4-[2-Amino-5-({[2-(trifluoromethyl)pyrimidin-4-yl]oxy}acetyl)pyrimidin-4-yl]-N-(2,6-difluorophenyl)piperidine-1-carboxamide]",12.2
14,"CC(C)Oc1ncc(C(C)(O)COc2ccnc(C(F)(F)F)n2)c(C2CCN(C(=O)Nc3c(F)cccc3F)CC2)n1 (stereo not shown) [Compound D40, N-(2,6-Difluorophenyl)-4-{5-(1-hydroxy-1-methyl-2-{[2-(trifluoromethyl)pyrimidin-4-yl]oxy}ethyl)-2-[(1-methylethyl)oxy]pyrimidin-4-yl}piperidine-1-carboxamide]",29.6
15,"CNC(=O)C(O)(COc1cccc(C(F)(F)F)n1)c1cnc(C)nc1C1CCN(C(=O)Nc2c(F)cccc2F)CC1 (stereo not shown) [Compound N45, N-(2,6-Difluorophenyl)-4-{5-[1-hydroxy-2-(methylamino)-2-oxo-1-({[6-(trifluoromethyl)pyridin-2-yl]oxy}methyl)ethyl]-2-methylpyrimidin-4-yl}piperidine-1-carboxamide]",81.9
16,"C/C(=N\Oc1ccnc(C(F)(F)F)c1)c1cnc(C)nc1C1CCN(C(=O)Nc2c(F)cccc2F)CC1 [Compound B37, N-(2,6-Difluorophenyl)-4-{2-methyl-5-[(1E)-N-{[2-(trifluoromethyl)pyridin-4-yl]oxy}ethanimidoyl]pyrimidin-4-yl}piperidine-1-carboxamide]",67.6
17,"C/C(=N\Oc1ccnc(Cl)c1)c1cnc(N)nc1C1CCN(C(=O)Nc2c(F)cccc2F)CC1 [Compound B59, 4-(2-Amino-5-{(1E)-N-[(2-chloropyridin-4-yl)oxy]ethanimidoyl}pyrimidin-4-yl)-N-(2,6-difluorophenyl)piperidine-1-carboxamide]",49.1
18,"Cc1ncc(C(F)(F)CNc2ccnc(C(F)(F)F)n2)c(C2CCN(C(=O)Cc3c(F)cccc3F)CC2)n1 [Compound N19, N-[2-(4-{1-[(2,6-Difluorophenyl)acetyl]piperidin-4-yl}-2-methylpyrimidin-5-yl)-2,2-difluoroethyl]-2-(trifluoromethyl)pyrimidin-4-amine]",6.5
19,"Cc1ncc(C(C)(O)CNc2ccnc(C(F)(F)F)n2)c(C2CCN(C(=O)Cc3c(F)cccc3F)CC2)n1 (stereo not shown) [Compound D5, 2-(2,6-difluorophenyl)-1-(4-(5-(2-hydroxy-1-((2-(trifluoromethyl)pyrimidin-4-yl)amino)propan-2-yl)-2-methylpyrimidin-4-yl)piperidin-1-yl)ethanone]",8.4
20,"Cc1cc(CNC(=O)c2cnc(C)nc2C2CCN(C(=O)Cc3c(F)cccc3F)CC2)ccn1 [Compound A70, 4-(1-(2-(2,6-difluorophenyl)acetyl)piperidin-4-yl)-2-methyl-N-((2-methylpyridin-4-yl)methyl)pyrimidine-5-carboxamide]",213
21,"Cc1cc(C)cc(CNC(=O)c2cnc(C)nc2C2CCN(CCc3ccccc3)CC2)c1 [Compound A101, N-(3,5-dimethylbenzyl)-2-methyl-4-(1-phenethylpiperidin-4-yl)pyrimidine-5-carboxamide]",634
22,"Cc1cc(C)cc(CNC(=O)c2cnc(C)nc2C2CCN(C(=O)c3ccccc3Cl)CC2)c1 [Compound A24, 4-(1-(2-chlorobenzoyl)piperidin-4-yl)-N-(3,5-dimethylbenzyl)-2-methylpyrimidine-5-carboxamide]",215
23,"Cc1ncc(C(=O)NCc2ccccc2)c(C2CCN(C(=O)Cc3c(F)cccc3F)CC2)n1 [Compound A69, N-benzyl-4-(1-(2-(2,6-difluorophenyl)acetyl)piperidin-4-yl)-2-methylpyrimidine-5-carboxamide]",144
24,"COc1nc(C)c(-c2nnc(-c3ccnc(C(F)(F)F)n3)o2)c(C2CCN(C(=O)Nc3c(F)cccc3F)CC2)n1 [Compound C61, N-(2,6-Difluorophenyl)-4-[6-methyl-2-(methyloxy)-5-{5-[2-(trifluoromethyl)pyrimidin-4-yl]-1,3,4-oxadiazol-2-yl}pyrimidin-4-yl]piperidine-1-carboxamide]",1140
25,"Cc1ncc(C(O)COc2cccc(C(F)(F)F)n2)c(C2CCN(C(=O)Nc3c(F)cccc3F)CC2)n1 (stereo not shown) [Compound N1, N-(2,6-Difluorophenyl)-4-[5-(1-hydroxy-2-{[6-(trifluoromethyl)pyridin-2-yl]oxy}ethyl)-2-methylpyrimidin-4-yl]piperidine-1-carboxamide]",6.6
26,"Cc1ncc(C(N)(C#N)COc2cccc(C(F)(F)F)n2)c(C2CCN(C(=O)Nc3c(F)cccc3F)CC2)n1 (stereo not shown) [Compound N48, 4-[5-(1-Amino-1-cyano-2-{[6-(trifluoromethyl)pyridin-2-yl]oxy}ethyl)-2-methylpyrimidin-4-yl]-N-(2,6-difluorophenyl)piperidine-1-carboxamide]",5.6
27,"C/C(=N\Oc1cccc(C(F)(F)F)c1)c1c(C)nc(C)nc1C1CCN(C(=O)Cc2c(F)cccc2F)CC1 [Compound B1, (1E)-1-(4-{1-[(2,6-Difluorophenyl)acetyl]piperidin-4-yl}-2,6-dimethylpyrimidin-5-yl)ethanone O-[3-(trifluoromethyl)phenyl]]",54
